From US8394825B2, “Compound” (Sterix Limited, priority 2007, dated 2013)

melting point	SMILES
87 to 88 °C	COc1ccc(CN2CCCc3cc(OCc4ccccc4)c(OC)cc3C2)cc1 [compound 304, 7-Benzyloxy-8-methoxy-2-(4-methoxybenzyl)-2,3,4,5-tetrahydro-1H-benzo[c]azepine]
78 to 79 °C	COc1cc2c(cc1OCc1ccccc1)CCN(Cc1cccnc1)C2 [compound 11, 6-Benzyloxy-7-methoxy-2-(pyridin-3-ylmethyl)-1,2,3,4-tetrahydroisoquinoline]
62 to 87 °C	COc1ccc(C(=O)N2CCc3cc(O)ccc3C2)c(OC)c1 [B8, 2-(2,4-Dimethoxybenzoyl)-1,2,3,4-tetrahydroisoquinolin-6-ol]
154 to 157 °C	CCOC1CN(Cc2ccc(OC)cc2)Cc2cc(OC)c(O)cc21 (stereo not drawn) [F36, 4-Ethoxy-7-methoxy-2-(4-methoxybenzyl)-1,2,3,4-tetrahydroisoquinolin-6-ol]
125 to 126 °C	COc1cc2c(cc1OCc1ccccc1)CCN(Cc1ccncc1)C2 [compound 13, 6-Benzyloxy-7-methoxy-2-(pyridin-4-ylmethyl)-1,2,3,4-tetrahydroisoquinoline]
78 to 79 °C	COc1cc2c(cc1OCc1ccccc1)CCN(Cc1cccc(O[Si](C(C)C)(C(C)C)C(C)C)c1)C2
58 to 77 °C	COc1ccc(C(=O)N2CCc3cc(O)ccc3C2)cc1OC [B10, 2-(3,4-Dimethoxybenzoyl)-1,2,3,4-tetrahydroisoquinolin-6-ol]
109 to 112 °C	COc1cc(O)c(CN2CCc3cc(O)ccc3C2)c(OC)c1 [B28, 2-(2-Hydroxy-4,6-dimethoxybenzyl)-1,2,3,4-tetrahydroisoquinolin-6-ol]
129 to 130 °C	COc1cc2c(cc1OCc1ccccc1)CCCC(=O)N2Cc1cc(OC)c(OC)c(OC)c1 [compound 318, 7-benzyloxy-8-methoxy-1-(3,4,5-trimethoxybenzyl)-4,5-dihydro-1H-benzo[b]azepin-2(3H)-one]
84 to 85 °C	COc1ccc(CN2Cc3cc(OC)c(O)cc3C(OC)C2)cc1 (stereo not drawn) [F32, 4,7-Dimethoxy-2-(4-methoxybenzyl)-1,2,3,4-tetrahydro-isoquinolin-6-ol]
46 to 48 °C	COc1cc2c(cc1O)CCCN(Cc1cc(OC)c(OC)c(OC)c1)C2 [compound 309, 7-Hydroxy-8-methoxy-2-(3,4,5-trimethoxybenzyl)-2,3,4,5-tetrahydro-1H-benzo[c]azepine]
132 to 134 °C	COc1cc2c(cc1O)CCN(Cc1cccc(C(C)=O)c1)C2 [compound 62, 6-Hydroxy-7-methoxy-2-(3-acetylbenzyl)-1,2,3,4-tetrahydroisoquinoline]
88 to 89 °C	COc1ccc(CCN2CCc3cc(OCc4ccccc4)c(OC)cc3C2)cc1 [compound 14, 6-Benzyloxy-7-methoxy-2-(4-methoxyphenethyl)-1,2,3,4-tetrahydroisoquinoline]
84 to 85 °C	CCOC1CN(Cc2ccc(OC)cc2)Cc2cc(OC)c(OCc3ccccc3)cc21 (stereo not drawn) [F25, 6-Benzyloxy-4-ethoxy-7-methoxy-2-(4-methoxybenzyl)-1,2,3,4-tetrahydroisoquinoline]
89 to 90 °C	COc1cc2c(cc1OCc1ccccc1)C(OC)CN(Cc1cc(OC)c(OC)c(OC)c1)C2 (stereo not drawn) [F22, 6-Benzyloxy-4,7-dimethoxy-2-(3,4,5-trimethoxybenzyl)-1,2,3,4-tetrahydroisoquinoline]
140 to 142 °C	CCOc1cc(CN2CCc3cc(O)ccc3C2)cc(OCC)c1OCC [B27, 2-(3,4,5-triethoxybenzyl)-1,2,3,4-tetrahydroisoquinolin-6-ol]
132 to 133 °C	CCOC1CN(Cc2cc(OC)c(OC)c(OC)c2)Cc2cc(OC)c(OCc3ccccc3)cc21 (stereo not drawn) [F26, 6-Benzyloxy-4-ethoxy-7-methoxy-2-(3,4,5-trimethoxybenzyl)-1,2,3,4-tetrahydro-isoquinoline]

melting point	SMILES
37 to 53 °C	COc1cc(CC(=O)N2CCc3cc(O)ccc3C2)cc(OC)c1OC [B5, 2-(3,4,5-Trimethoxyphenylacetyl)-1,2,3,4-tetrahydroisoquinolin-6-ol]
223 to 224 °C	COc1cccc(CN2CCc3cc(O)ccc3C2)c1 [compound 37, 6-Hydroxy-2-(3-methoxybenzyl)-1,2,3,4-tetrahydroisoquinoline]
134 to 135 °C	CCOC1CN(Cc2cccc(OC)c2)Cc2cc(OC)c(O)cc21 (stereo not drawn) [F35, 4-Ethoxy-7-methoxy-2-(3-methoxy-benzyl)-1,2,3,4-tetrahydroisoquinolin-6-ol]
236 to 239 °C	COc1cc2c(cc1O)CCN(S(=O)(=O)c1cccc(CC(=O)O)c1)C2=O [203A, 6-Hydroxy-7-methoxy-2-(3-carboxymethyl-benzenesulfonyl)-3,4-dihydro-2H-isoquinolin-1-one]
136 to 137 °C	COc1cc2c(cc1O)CCCN(Cc1ccccc1OC)C2 [compound 306, 7-Hydroxy-8-methoxy-2-(2-methoxybenzyl)-2,3,4,5-tetrahydro-1H-benzo[c]azepine]
150 to 151 °C	COc1cc(OC)c(CN2CCc3cc(O)c(OC)cc3C2)c(OC)c1 [F3, 7-Methoxy-2-(2,4,6-trimethoxybenzyl)-1,2,3,4-tetrahydroisoquinolin-6-ol]
141 to 143 °C	COc1cccc(C(=O)N2CCc3cc(OCc4ccccc4)c(OC)cc3C2=O)c1 [compound 131, 6-Benzyloxy-7-methoxy-2-(3-methoxybenzoyl)-3,4-dihydro-2H-isoquinoline-1-one]
169 to 172 °C	Oc1ccc2c(c1)CCN(Cc1ccc3c(c1)OCO3)C2 [B24, 2-(Benzo[d][1,3]dioxol-5-ylmethyl)-1,2,3,4-tetrahydroisoquinolin-6-ol]
165 to 166 °C	COc1cc2c(cc1O)CCN(Cc1cccnc1)C2 [compound 47, 6-Hydroxy-7-methoxy-2-(pyridin-3-ylmethyl)-1,2,3,4-tetrahydroisoquinoline]
170 to 173 °C	COc1cc2c(cc1OS(N)(=O)=O)CC(C)(C)N(C(=O)c1cc(OC)c(OC)c(OC)c1)C2C (stereo not drawn) [compound 247, Sulfamic acid 7-methoxy-1,3,3-trimethyl-2-(3,4,5-trimethoxy-benzoyl)-1,2,3,4-tetrahydro-isoquinolin-6-yl ester]
110 to 111 °C	COc1cc2c(cc1O)CCN(Cc1cc(F)cc(F)c1)C2 [F6, 2-(3,5-Difluorobenzyl)-7-methoxy-1,2,3,4-tetrahydroisoquinolin-6-ol]
57.3 to 58.6 °C	COc1cc2c(cc1O[Si](C(C)C)(C(C)C)C(C)C)CCN(Cc1cccc([N+](=O)[O-])c1)C2
133 to 134 °C	COc1cccc(CN2Cc3cc(OC)c(O)cc3C(OC)C2)c1 (stereo not drawn) [F31, 4,7-Dimethoxy-2-(3-methoxybenzyl)-1,2,3,4-tetrahydro-isoquinolin-6-ol]
149 to 152 °C	COc1ccc(CN2CCc3cc(O)ccc3C2)c(OC)c1 [B25, 2-(2,4-Dimethoxybenzyl)-1,2,3,4-tetrahydroisoquinolin-6-ol]
51 to 54 °C	COc1cc2c(cc1O)C(OC)CN(Cc1cc(OC)c(OC)c(OC)c1)C2 (stereo not drawn) [F33, 4,7-Dimethoxy-2-(3,4,5-trimethoxybenzyl)-1,2,3,4-tetrahydro-isoquinolin-6-ol]
44 to 46 °C	COc1cc2c(cc1OCc1ccccc1)CCCN(Cc1cc(OC)c(OC)c(OC)c1)C2 [compound 305, 7-Benzyloxy-8-methoxy-2-(3,4,5-trimethoxybenzyl)-2,3,4,5-tetrahydro-1H-benzo[c]azepine]
